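Following 48 hours of exposure in 96-well plates, responses at five concentrations were used to interpolate endpoints linearly. GI50: concentration for 50% inhibition of growth. TGI: total growth inhibition.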
Legend:
Test in all cases: NCI anticancer screen, dose series, 48 h
NCI-H226 lung = system: NCI-H226 lung
NCI-H23 lung = system: NCI-H23 lung
NCI-H460 lung = system: NCI-H460 lung
NCI-H522 lung = system: NCI-H522 lung
NCI/ADR-RES ovarian = system: NCI/ADR-RES ovarian
OVCAR-3 ovarian = system: OVCAR-3 ovarian
OVCAR-4 ovarian = system: OVCAR-4 ovarian
OVCAR-5 ovarian = system: OVCAR-5 ovarian
OVCAR-8 ovarian = system: OVCAR-8 ovarian
PC-3 prostate = system: PC-3 prostate
RPMI-8226 leukemia = system: RPMI-8226 leukemia
RXF 393 renal = system: RXF 393 renal
SF-268 CNS = system: SF-268 CNS
SF-295 CNS = system: SF-295 CNS
SF-539 CNS = system: SF-539 CNS
SK-MEL-2 melanoma = system: SK-MEL-2 melanoma
SK-MEL-28 melanoma = system: SK-MEL-28 melanoma
SK-MEL-5 melanoma = system: SK-MEL-5 melanoma
SK-OV-3 ovarian = system: SK-OV-3 ovarian
SN12C renal = system: SN12C renal
SNB-19 CNS = system: SNB-19 CNS
SNB-75 CNS = system: SNB-75 CNS
SR leukemia = system: SR leukemia
SW-620 colon = system: SW-620 colon
T-47D breast = system: T-47D breast
TK-10 renal = system: TK-10 renal
U251 CNS = system: U251 CNS
UACC-257 melanoma = system: UACC-257 melanoma
UACC-62 melanoma = system: UACC-62 melanoma
UO-31 renal = system: UO-31 renal

COc1ccc(C(=O)/C=C/c2cc(C(F)(F)F)cc(C(F)(F)F)c2)cc1S(N)(=O)=O
TGI (NCI-H226 lung): 4.59 µM | GI50 (NCI-H23 lung): 1550 nM | TGI (NCI-H23 lung): 3.01 µM | GI50 (NCI-H460 lung): 1560 nM | TGI (NCI-H460 lung): 3.28 µM | GI50 (NCI-H522 lung): 1560 nM | TGI (NCI-H522 lung): 3.24 µM | GI50 (NCI/ADR-RES ovarian): 1510 nM | TGI (NCI/ADR-RES ovarian): 3.72 µM | GI50 (OVCAR-3 ovarian): 1560 nM | TGI (OVCAR-3 ovarian): 3.31 µM | GI50 (OVCAR-4 ovarian): 1850 nM | TGI (OVCAR-4 ovarian): 4.44 µM | GI50 (OVCAR-5 ovarian): 1840 nM | TGI (OVCAR-5 ovarian): 3.36 µM | GI50 (OVCAR-8 ovarian): 1490 nM | TGI (OVCAR-8 ovarian): 3.87 µM | GI50 (PC-3 prostate): 2190 nM | TGI (PC-3 prostate): 5.99 µM | GI50 (RPMI-8226 leukemia): 558 nM | TGI (RPMI-8226 leukemia): > 100 µM | GI50 (RXF 393 renal): 1760 nM | TGI (RXF 393 renal): 3.34 µM | GI50 (SF-268 CNS): 2380 nM | TGI (SF-268 CNS): 7.48 µM | GI50 (SF-295 CNS): 1700 nM | TGI (SF-295 CNS): 3.1 µM | GI50 (SF-539 CNS): 1680 nM | TGI (SF-539 CNS): 3.07 µM | GI50 (SK-MEL-2 melanoma): 1740 nM | TGI (SK-MEL-2 melanoma): 3.25 µM | GI50 (SK-MEL-28 melanoma): 1670 nM | TGI (SK-MEL-28 melanoma): 3.07 µM | GI50 (SK-MEL-5 melanoma): 1730 nM | TGI (SK-MEL-5 melanoma): 3.15 µM | GI50 (SK-OV-3 ovarian): 3.65 µM | TGI (SK-OV-3 ovarian): 16.3 µM | GI50 (SN12C renal): 1470 nM | TGI (SN12C renal): 2860 nM | GI50 (SNB-19 CNS): 1600 nM | TGI (SNB-19 CNS): 2980 nM | GI50 (SNB-75 CNS): 1380 nM | TGI (SNB-75 CNS): 3.33 µM | GI50 (SR leukemia): 498 nM | TGI (SR leukemia): > 100 µM | GI50 (SW-620 colon): 1030 nM | TGI (SW-620 colon): 2440 nM | GI50 (T-47D breast): 1690 nM | TGI (T-47D breast): 3.55 µM | GI50 (TK-10 renal): 2050 nM | TGI (TK-10 renal): 3.86 µM | GI50 (U251 CNS): 1290 nM | TGI (U251 CNS): 2620 nM | GI50 (UACC-257 melanoma): 1510 nM | TGI (UACC-257 melanoma): 3.18 µM | GI50 (UACC-62 melanoma): 1510 nM | TGI (UACC-62 melanoma): 3 µM | GI50 (UO-31 renal): 1450 nM | TGI (UO-31 renal): 2760 nM

— PubChem BioAssay (NCI)
